{"source": "patent US9107889B2", "about": "“Compositions comprising an NO donor and a dithiolane and their use for improvement of sexual function” (Encrypta GmbH, priority 2005, dated 2015)", "key": {"[1]": {"test_system": "erectile dysfunction (ED)", "test": "Clinical case reports: erectile function, International Index of Erectile Function (IIEF) score", "assay_type": "in vivo, human", "description": "ED is clinically assessed by the application of the International Index of Erectile Function (IIEF Scale). The scale consists of 5 items related to erectile function scored from never (1 points) to always (5 points). 21-25 points translate to the absence of ED, 16-20 points relate to a mild ED, 11-15 points relate to a moderate ED and 5-10 points translate to a severe ED.\n(§1) A person suffered since 3 months from worsening of erection (reduction of penile tension) and of a slight reduction of libido. Their IIEF count at the examination was 9. All biochemical parameters and hormones were within the normal range. The Doppler sonography of the penile vessels was normal. A challenge test with Silfenadil was positive, thereby excluding an organic pathology of the erectile dysfunction (ED). […] Psychogenic ED was diagnosed after examination. […] Arginine (5 g) and 600 mg α-lipoic acid were taken orally 30 minutes prior intercourse. After therapy, erection normalized. The IIEF score improved from 9 to 21 points.\nA person complained since a week about insufficient erection. The person started sexual life with regularly intercourse twice a week. 3 months ago, they changed the sexual partner. At the 1st intercourse with the new partner, they experienced overexcitement. Since that time erection worsened, with an IIEF score of 8 points. The biochemical and hormonal values were within the normal range. The diagnosis was psychogenic ED and failure expectation syndrome. […] After change to 4 g arginine and 300 mg α-lipoic acid, the erection improved. The IIEF score improved from 8 to 12 points. In the meantime, the patient changed to chronic intake of 1 g arginine+100 mg α-lipoic acid daily. Occasionally, they take on demand prior intercourse additional 4 g arginine+300 mg α-lipoic acid.\n(§2) A patient complained about worsening of erection since 7 years. Sexual intercourse was only possible in selected position. In addition, they suffered from premature ejaculation. Their libido remained intact. The IEFF score at diagnosis was 11. The diagnosis was physical ED and premature ejaculation. 600 mg α-lipoic acid was given as single dose and arginine was given in 4 single doses over the day of 2 g. The erection improved and the intercourse was prolonged from 1-2 minutes to 7 minutes. The IEFF score changed from 11 to 15 points. The 4 single doses have been changed to a single dose of 10 g arginine, taken together with the α-lipoic acid.\nA patient (company manager with associated psychological stress) complained about reduced erection and reduced libido since the last 13 years. The morning reactions retained. […] The diagnosis was psychogenic ED and manager syndrome. […] The IIEF score improved from 9 to 24 points. For chronic intake, the daily dose of arginine has been reduced to 2 g, with no change of the α-lipoic acid intake.\n(§3) A patient complained about worsening of erection and premature ejaculation. After administration of Silfenadil and Verdenafil, the erection improved; however, the premature ejaculations remained. The diagnosis was psychogenic ED and premature ejaculation. […] However, 200 mg thioctic acid together with 10 g arginine led to an improvement of the IIEF from 8 to 20 points. The duration of intercourse was extended from 1 to 4 minutes."}, "premature ejaculation": {"test_system": "premature ejaculation", "test": "Clinical case reports: duration of intercourse / premature ejaculation", "assay_type": "in vivo, human", "details": "Case 5; Silfenadil and Verdenafil", "procedure": "as §2, §3\nA person was able to perform intercourse only after nasal intake of isoamylnitrite since 5 years. However, intercourse was still unsatisfactory due to unpredictable erections and premature ejaculations. The diagnosis was physical erectile dysfunction and premature ejaculation. […]"}, "[2]": {"test_system": "erectile dysfunction (ED)", "test": "Challenge test with Silfenadil", "assay_type": "in vivo, human", "details": "Case 1; positive excludes organic pathology of ED", "procedure": "as §1"}, "[3]": {"test": "Adverse events in the clinical cases", "assay_type": "in vivo, human", "details": "Case 1", "procedure": "as §1\nNone of the cases reported adverse events due to the intake of the combination partners. Attributes of cardiovascular dysfunction were not observed. Acutely, oral liquid presentations were applied, chronically both liquid and solid presentations."}, "loss of libido in women": {"test_system": "loss of libido in women", "test": "Clinical case report: female sexual function (libido, orgasm, IFSF questionnaire)", "assay_type": "in vivo, human", "details": "Case 6; arginine alone 3 g daily increased to 10 g", "description": "Female sexual function can be assessed by the Index of Female Sexual Function (IFSF), a 9-item self-assessment questionnaire. The IFSF is much more comprehensive in respect of sexual function assessment compared to the IIEF. Parameters to be assessed are discomfort during intercourse, degree of vaginal dryness, number of attempts to intercourse, rate and degree of sexual desire, level of satisfaction with sex life and relationship, degree of clitoral sensation and quality of orgasm.\nA person experienced loss of libido after they have born their first child. Intercourse was often painful due to diminished […]. […] Since two years, they regularly attend with their spouse marriage counseling. […] The dose was increased weekly by 100 mg. […] The ISFS questionnaire improved (10 points). They reported that their partnership has improved. Marriage counseling has been aborted."}, "[4]": {"details": "cited from earlier work"}}, "data": [{"compound": "CCCc1nn(C)c2c(=O)[nH]c(-c3cc(S(=O)(=O)N4CCN(C)CC4)ccc3OCC)nc12", "note": "[Silfenadil]", "values": [{"measurement": "erection after administration", "setting": "[1]; Case 5, psychogenic ED and premature ejaculation, Silfenadil and Verdenafil", "result": "improved"}, {"measurement": "premature ejaculations after administration", "setting": "premature ejaculation", "result": "remained"}, {"measurement": "challenge test result", "setting": "[2]", "result": "positive"}, {"measurement": "side effect evoked by administration", "setting": "[3]", "result": "severe redness of face"}]}, {"compound": "N=C(N)NCCC[C@H](N)C(=O)O", "note": "[arginine]", "values": [{"measurement": "change of IIEF score", "setting": "[1]; Case 2, psychogenic ED, baseline IIEF 8, oral intake of 4 g arginine alone", "result": "did not change"}, {"measurement": "effect on ED / premature ejaculation", "setting": "[1]; Case 5, 10 g arginine on top of basic treatment (Silfenadil, Verdenafil)", "result": "without any effect"}, {"measurement": "effect on loss of libido / absent orgasm", "setting": "loss of libido in women", "result": "did not improve the situation"}]}, {"compound": "O=C(O)CCCCC1CCSS1", "note": "(stereo not drawn) [α-lipoic acid]", "values": [{"measurement": "change of IIEF score", "setting": "[1]; Case 1, psychogenic ED, baseline IIEF 9, oral intake of 600 mg α-lipoic acid alone", "result": "did not change"}, {"measurement": "effect on erection", "setting": "[1]; Case 4, psychogenic ED, single dose 200 mg α-lipoic acid alone", "result": "without any effect"}, {"measurement": "effect on erection", "setting": "[1]; Case 4, α-lipoic acid alone increased to 600 mg", "result": "did improve the situation"}, {"measurement": "pKa", "setting": "[4]", "result": 5.3}]}]}
